According to patent publication US8247447B2, “Use of derivatives of 4-hydroxyphenoxy acetic acid” (Cognis IP Management GmbH, priority 2007, dated 2012):

Test system: Melanocytes (B16 cell line)
Assay: Melanogenesis inhibition assay (melanin level by optical density at 475 nm; viable cells by cellular proteins, Bradford's method)
Format: cell-based
Details: for Protein level (rate of cellular proteins) / Melanin level (rate of melanin): B16 melanocytes, 3 days incubation; for Protein level (rate of cellular proteins): Bradford's method; for Melanin level (rate of melanin): OD 475 nm
Method: Melanocytes (B16 cell line) were inoculated in standard medium of cell culture with foetal calf serum (FCS). After an incubation of 3 day at 37° C. and CO2=5%, growth medium was exchanged for standard medium with a range of concentrations for each compound to be tested and a control without ingredient. After an incubation of 3 days, the level of melanin was measured by recording the optical density at 475 nm. After washing the cells by a balanced salt, and homogenisation in a solution of 0.1 M NaOH, the number of viable cells was determined by evaluation of the level of cellular proteins (Bradford's method). The results are expressed in % against control (cell culture medium without compound) as a mean on 1 to 3 assays, each in triplicate.

With `CC(Oc1ccc(O)cc1)C(=O)O` (racemic) [2-(4-hydroxyphenoxy)-propionic acid] the “Protein level (rate of cellular proteins)” value (shortened to “Protein level”) (dose 0.00003 % (w/v)) was 103 %/control, the “Melanin level (rate of melanin)” value (dose 0.00003 % (w/v)) was 84 %/control and the “Protein level” value (dose 0.0001 % (w/v)) was 97 %/control. For the same molecule, the “Melanin level (rate of melanin)” value (dose 0.0001 % (w/v)) was 57 %/control, the “Protein level” value (dose 0.0003 % (w/v)) was 107 %/control and the “Melanin level (rate of melanin)” value (dose 0.0003 % (w/v)) was 52 %/control. For the same molecule, the “Protein level” value (dose 0.001 % (w/v)) was 104 %/control, the “Melanin level (rate of melanin)” value (dose 0.001 % (w/v)) was 39 %/control and the “Protein level” value (dose 0.01 % (w/v)) was 98 %/control. For the same molecule, the “Melanin level (rate of melanin)” value (dose 0.01 % (w/v)) was 37 %/control, the cell toxicity (melanocytes, doses up to 0.01%) was “without any cell toxicity” and the “rate of melanin synthesis in melanocytes” value (result in words, over the tested dose range) was “decreased in a dose dependant manner”.
